The source of these data is ChEMBL document CHEMBL3045393, “Aryldiones incorporating a [1,4,5]oxadiazepane ring. Part I: Discovery of the novel cereal herbicide pinoxaden” (Bioorg Med Chem, 2009).

Activity calls are given as the source filed them. The rule behind the calls is not given here.

The subject of series [1] is Setaria faberi. As to the kind of experiment: Post-emergence herbicidal activity against Setaria faberi (Giant Foxtail) at 2000 g a.i./ha after 21 days. In kind it is functional.
Series [2] relates to Alopecurus myosuroides. The series can be described thus: Herbicidal activity against Alopecurus myosuroides at > / = 250 g a.i./ha in presence of cloquintocet-mexyl. In kind it is functional, organism-based.
Series [3] relates to Apera spica-venti. The series can be described thus: Herbicidal activity against Apera spica-venti at 125 g a.i./ha in presence of cloquintocet-mexyl. In kind it is functional, organism-based.
Series [4] relates to Avena fatua. The series can be described thus: Post-emergence herbicidal activity against Avena fatua at 2000 g a.i./ha after 21 days. In kind it is functional.
In series [5] the test system is Setaria faberi. The series can be described thus: Post-emergence herbicidal activity against Setaria faberi (Giant Foxtail) at 500 g a.i./ha after 21 days. In kind it is functional.
Series [6] has as its system Lolium perenne. The series can be described thus: Post-emergence herbicidal activity against Lolium perenne (perennial ryegrass) at 2000 g a.i./ha after 21 days. The format is functional.
Series [7] relates to Lolium perenne. The series can be described thus: Post-emergence herbicidal activity against Lolium perenne (perennial ryegrass) at 500 g a.i./ha after 21 days. The format is functional.
Series [8] has as its system Lolium multiflorum. As to the kind of experiment: Herbicidal activity against Lolium multiflorum (Italian ryegrass) at 125 g a.i./ha in presence of cloquintocet-mexyl. The format is functional, organism-based.
In series [9] the test system is Avena fatua. The series can be described thus: Herbicidal activity against Avena fatua at > / = 250 g a.i./ha in presence of cloquintocet-mexyl. In kind it is functional, organism-based.
For series [10], the system named is Avena fatua. The series can be described thus: Post-emergence herbicidal activity against Avena fatua at 500 g a.i./ha after 21 days. The format is functional.
Series [11] concerns Avena fatua. The series can be described thus: Post-emergence herbicidal activity against Avena fatua at 125 g a.i./ha measured after 21 days in presence of 0.2% X-77 adjuvant. In kind it is functional.
Series [12] concerns Setaria faberi. The series can be described thus: Post-emergence herbicidal activity against Setaria faberi (Giant Foxtail) at 125 g a.i./ha measured after 21 days in presence of 0.2% X-77 adjuvant. In kind it is functional.
In series [13] the test system is Hordeum vulgare. The series can be described thus: Phytotoxicity against Hordeum vulgare (barley) at 125 g a.i./ha applied post-emergence measured after 21 days in presence of 0.2% X-77 adjuvant. Conditions: in vivo, other, 504 h. In kind it is organism-based.
Series [14] deals with Triticum aestivum. The series can be described thus: Phytotoxicity against Triticum aestivum (wheat) at 125 g a.i./ha applied post-emergence measured after 21 days in presence of 0.2% X-77 adjuvant. The format is organism-based. Conditions: in vivo, other, 504 h.
Series [15] deals with Lolium perenne. The series can be described thus: Post-emergence herbicidal activity against Lolium perenne (perennial ryegrass) at 125 g a.i./ha measured after 21 days in presence of 0.2% X-77 adjuvant. The format is functional.
Series [16] deals with Alopecurus myosuroides. The series can be described thus: Post-emergence herbicidal activity against Alopecurus myosuroides at 125 g a.i./ha measured after 21 days in presence of 0.2% X-77 adjuvant. The format is functional.
Series [17] relates to Triticum aestivum. As to the kind of experiment: Phytotoxicity against Triticum aestivum (wheat) at 250 g a.i./ha applied post-emergence measured after 21 days in presence of 1% Merge adjuvant. In kind it is organism-based. Conditions: in vivo, other, 504 h.
Series [18] relates to Avena fatua. As to the kind of experiment: Post-emergence herbicidal activity against Avena fatua at 250 g a.i./ha measured after 21 days in presence of 1% Merge adjuvant. The format is functional.
Series [19] deals with Triticum aestivum. The series can be described thus: Phytotoxicity against Triticum aestivum (wheat) at 30 g a.i./ha applied post-emergence measured after 21 days in presence of 1% Merge adjuvant. Conditions: in vivo, other, 504 h. In kind it is organism-based.
For series [20], the system named is Lolium perenne. The series can be described thus: Post-emergence herbicidal activity against Lolium perenne (perennial ryegrass) at 30 g a.i./ha measured after 21 days in presence of 1% Merge adjuvant. In kind it is functional.
The test system of series [21] is Alopecurus myosuroides. As to the kind of experiment: Post-emergence herbicidal activity against Alopecurus myosuroides at 30 g a.i./ha measured after 21 days in presence of 1% Merge adjuvant. The format is functional.
Series [22] deals with Hordeum vulgare. The series can be described thus: Phytotoxicity against Hordeum vulgare (barley) at 250 g a.i./ha applied post-emergence measured after 21 days in presence of 1% Merge adjuvant. The format is organism-based. Conditions: in vivo, other, 504 h.
In series [23] the test system is Avena fatua. As to the kind of experiment: Post-emergence herbicidal activity against Avena fatua at 30 g a.i./ha measured after 21 days in presence of 1% Merge adjuvant. In kind it is functional.
Series [24] deals with Alopecurus myosuroides. The series can be described thus: Post-emergence herbicidal activity against Alopecurus myosuroides at 250 g a.i./ha measured after 21 days in presence of 1% Merge adjuvant. In kind it is functional.
Series [25] concerns Hordeum vulgare. The series can be described thus: Phytotoxicity against Hordeum vulgare (barley) at 30 g a.i./ha applied post-emergence measured after 21 days in presence of 1% Merge adjuvant. Conditions: in vivo, other, 504 h. In kind it is organism-based.
Series [26] relates to Setaria faberi. The series can be described thus: Post-emergence herbicidal activity against Setaria faberi (Giant Foxtail) at 250 g a.i./ha measured after 21 days in presence of 1% Merge adjuvant. The format is functional.
Series [27] has as its system Lolium perenne. The series can be described thus: Post-emergence herbicidal activity against Lolium perenne (perennial ryegrass) at 250 g a.i./ha measured after 21 days in presence of 1% Merge adjuvant. The format is functional.
The subject of series [28] is Setaria faberi. The series can be described thus: Post-emergence herbicidal activity against Setaria faberi (Giant Foxtail) at 30 g a.i./ha measured after 21 days in presence of 1% Merge adjuvant. In kind it is functional.
In series [29] the test system is Lolium perenne. As to the kind of experiment: Post-emergence herbicidal activity against Lolium perenne (perennial ryegrass) at 125 g a.i./ha measured after 21 days. In kind it is functional.
Series [30] relates to Alopecurus myosuroides. The series can be described thus: Post-emergence herbicidal activity against Alopecurus myosuroides at 500 g a.i./ha measured after 15 days. The format is functional.
Series [31] relates to Avena fatua. As to the kind of experiment: Post-emergence herbicidal activity against Avena fatua at 500 g a.i./ha measured after 15 days. The format is functional.
Series [32] concerns Avena fatua. The series can be described thus: Post-emergence herbicidal activity against Avena fatua at 125 g a.i./ha measured after 21 days. In kind it is functional.
Series [33] has as its system Alopecurus myosuroides. The series can be described thus: Post-emergence herbicidal activity against Alopecurus myosuroides at 125 g a.i./ha measured after 21 days. In kind it is functional.
The test system of series [34] is Triticum aestivum. As to the kind of experiment: Phytotoxicity against Triticum aestivum (wheat) at 500 g a.i./ha applied post-emergence measured after 15 days. The format is organism-based. Conditions: in vivo, other, 360 h.
In series [35] the test system is Hordeum vulgare. As to the kind of experiment: Phytotoxicity against Hordeum vulgare (barley) at 125 g a.i./ha applied post-emergence measured after 21 days. In kind it is organism-based. The settings on record: in vivo, other, 504 h.
For series [36], the system named is Triticum aestivum. The series can be described thus: Phytotoxicity against Triticum aestivum (wheat) at 125 g a.i./ha applied post-emergence measured after 21 days. Conditions: in vivo, other, 504 h. In kind it is organism-based.
The subject of series [37] is Hordeum vulgare. As to the kind of experiment: Phytotoxicity against Hordeum vulgare (barley) at 500 g a.i./ha applied post-emergence measured after 15 days. The format is organism-based. The settings on record: in vivo, other, 360 h.
The subject of series [38] is Lolium perenne. As to the kind of experiment: Post-emergence herbicidal activity against Lolium perenne (perennial ryegrass) at 500 g a.i./ha measured after 15 days. The format is functional.
Series [39] relates to Alopecurus myosuroides. The series can be described thus: Post-emergence herbicidal activity against Alopecurus myosuroides at 30 g a.i./ha measured after 21 days in presence of 0.2% X-77 adjuvant. The format is functional.
The subject of series [40] is Setaria faberi. The series can be described thus: Post-emergence herbicidal activity against Setaria faberi (Giant Foxtail) at 30 g a.i./ha measured after 21 days in presence of 0.2% X-77 adjuvant. In kind it is functional.
For series [41], the system named is Triticum aestivum. The series can be described thus: Phytotoxicity against Triticum aestivum (wheat) at 30 g a.i./ha applied post-emergence measured after 21 days in presence of 0.2% X-77 adjuvant. In kind it is organism-based. Conditions: in vivo, other, 504 h.
The test system of series [42] is Avena fatua. The series can be described thus: Post-emergence herbicidal activity against Avena fatua at 30 g a.i./ha measured after 21 days in presence of 0.2% X-77 adjuvant. In kind it is functional.
The subject of series [43] is Lolium perenne. The series can be described thus: Post-emergence herbicidal activity against Lolium perenne (perennial ryegrass) at 30 g a.i./ha measured after 21 days in presence of 0.2% X-77 adjuvant. The format is functional.
The test system of series [44] is Hordeum vulgare. The series can be described thus: Phytotoxicity against Hordeum vulgare (barley) at 30 g a.i./ha applied post-emergence measured after 21 days in presence of 0.2% X-77 adjuvant. The format is organism-based. Conditions: in vivo, other, 504 h.

For the compound `Cc1cc(C)c(-c2c(OC(=O)C(C)(C)C)n3n(c2=O)CCOCC3)c(C)c1`, the Activity was found to be 100% in series [1]; 100% in series [4]; 90% in series [5]; 90% in [6]; 90% in series [7]; 90% in series [10]. Also, the outcome in series [2], in series [3], in [8] and in series [9] was Active.

On to `CCc1cc(CC)c(C2C(=O)N3CCCCN3C2=O)c(CC)c1`, for which the Activity in series [11] came out at 100%; in series [12], 50%; in series [13], 40%; in series [14], 40%; in series [15], 60%; in series [16] it was 90%.

With `Cc1cc(C)c(C2C(=O)N3CCOCCN3C2=O)c(C)c1`, the Activity in series [17] is recorded as 50%; in [18], 90%; in series [19], 0%; in series [20], 80%; in series [1], 100%; in [21] it was 10%. The Activity in series [4] is 100%; in [5] it was 80%; in [22], 20%; in series [6], 100%; in series [23], 60%; in series [24], 80%. Further, the Activity in [25] turned out to be 0%; in series [7], 90%; in series [26] it was 90%; in [27], 90%; in [10], 80%; in series [28], 50%.

As for `Cc1cc(C)c(C2C(=O)N3CCCCN3C2=O)c(C)c1` [CGA-271312], the Activity is 40% in series [29]; 60% in series [30]; 90% in [31]; 50% in series [32]; 40% in series [33]; 60% in series [34]. The Activity in [35] amounted to 40%; in [36], 0%; in series [37] it was 90%; in series [38] it was 90%.

As for `CCc1cccc(CC)c1C1C(=O)N2CCCCN2C1=O`, the Activity in series [39] is reported as 80%; in [11], 80%; in [19] it was 80%; in series [20], 80%; in series [12] it was 40%; in series [21], 100%. Besides, the Activity in series [13] was 0%; in series [14], 0%; in series [40] it was 40%; in series [41], 40%; in series [23] it was 100%; in series [42] it was 90%. Further, the Activity was determined as 50% in series [43]; 80% in series [25]; 40% in series [15]; 10% in series [44]; 60% in [16]; 90% in series [28].
